Measurements from patent publication US10058587B2, “Peptide composition for cancer treatment by inhibiting TRPV6 calcium channel activity” (priority 2008, dated 2018).
Where no end group is shown, it is not given here.

Assays:
[1] = test system: MCF 12A non-cancerous breast cell line; assay: Induction of apoptosis (APO-ONE caspase 3/7) and cell viability (CellTiter Blue); assay type: cell-based, human; design: key to Decline in cell viability: cell viability decreased (+); or not (−)
Procedure: MCF-10A, MCF-12A were cultured in 50% DMEM plus 50% Ham's F12 modified with 2 mM L-glutamine, 1 mM sodium pyruvate, 0.01 mg/mL bovine insulin, 500 ng/mL hydrocortisone, 50 ug/mL of penicillin and streptomycin. The combined medium was supplemented with 5% (v/v) fetal bovine serum.
(§1) The levels of apoptotic induction and cell viability were determined by multiplexing the measurements for single samples. CellTiter Blue and APO-ONE assay systems from Promega allows the determination of cell viability correlated to cell number, and induction of apoptosis. This protocol uses a fluorgenic peptide that contains a peptide recognition-sequence for caspase 3 and caspase 7, […] proteolytic enzymes of the apoptosis cascade. The CellTiter Blue reagent was added to wells in a 96-well plate containing cells under test, immediately after addition of peptide solution or vehicle. About 5000 cells were plated into the wells the day before. At the chosen time (Day 1, Day 2 etc.) the fluorescence was measured at 590 nm (emission) after excitation at 560 nm. The caspase 3/7 activity was measured (485 nm Ex/527 nm Em) in the same wells after adding 120 uL of the Apo-ONE reagent, freeze fracturing at −80° C. for 1 hr, and incubating for 1 hr at room temperature.
(§2) For this work, the concentrations of SorC13 and SorC27 used were 0 uM, 1 uM, 10 uM and 100 uM. The experiments extended over a 5 to 7 day period. All measurements were done in quadruplicate with both a blank (no cells) and control (vehicle, no peptide) used to correct the test measurements. The time-response data, and the dose-response data were plotted as means±standard error of the mean. Any statistical comparisons were done with the Student's t-test or by ANOVA analysis over the dose course. The level of statistical significance was considered to be the 95% confidence interval (i.e., p≤0.05).

[2] = test system: OV90 ovarian cancer cell line; assay: as above; assay type: cell-based, human; design: key to Decline in cell viability: decreased (+); or not (−)
Procedure: OV-90 was cultured in a 1:1 mixture of MCDB 105 medium and Medium 199 supplemented with 15% (v/v) fetal bovine serum.
as §1, §2
To compare the effect of the two SorC-peptides against the gold-standard treatment for ovarian cancers SorC13 or SorC27 was compared to treatment with a carboplatin and taxol (CAT) cocktail (10 uM Paclitaxel, 20 mM carboplatin) using the APO-ONE assay, which measures the combined activities of caspase 3 and caspase 7. Because of the mixed treatment (CAT), the effects were compared in terms of the ratio of treatment:control. If no effect was noted then the ratio=1. Comparisons of the treatment:control ratios were examined with the Student's t-test at a confidence level of 95%. Ratios of larger than a value of unity indicated a positive effect. The effects are illustrated in FIG. 5.

mealworm larvae = assay: Mealworm larva paralytic bioassay; assay type: in vivo; conditions: for larvae paralyzed: 20 nmole/100 mg mass; for paralysis in the mealworm larva model: molar equivalent doses (20 nanomole/100 mg larva)
Excerpt: To show this, the mealworm larva paralytic bioassay reported previously (U.S. Pat. No. 7,119,168) was used. Animals from a mealworm colony were arbitrarily selected and placed in groups (treatment and control). The animals were weighed to allow calculation of equivalent doses. The treatment was with either SorC13 or SorC27 dissolved in buffered insect Ringer's solution. The control was injection was an equivalent volume of insect Ringer's (NaCl; 10.40 g; KCl, 0.32 g; CaCl2, 0.48 g; NaHCO3, 0.32 g dissolved in 1 L of Millipore sterile water, pH 7.4). Peptide formulations were: SorC27 solutions, prepared at 1.0 mg/100 uL insect Ringer's (10 ug/uL, […], MW=2957); and SorC13, prepared at 0.5 mg/100 uL (5 ug/uL, […], MW=1566). The doses were 50 ug SorC27 per 100 mg of animal mass and 25 ug SorC13 per 100 mg of animal mass. Peptide solutions and control saline were injected dorsally at the fourth segment from the head, just under the integumen. Animals were gently ‘tail tweaked’ with forceps to trigger the escape reflex reaction and scored on time-to-effect, duration of effect and intensity of effect.

Daudi = assay: Apoptosis and cell viability in Burkitt's lymphoma cell line (Example 11); assay type: cell-based, human; conditions: 0, 10 and 100 uM, 5 to 7 days
Procedure: (§3) For this work, the concentrations of SorC13 and SorC27 used are 0 uM, 10 uM and 100 uM. The experiments extend over a 5 to 7 day period. All measurements are done in quadruplicate with both a blank (no cells) and control (vehicle, no peptide) used to correct the test measurements. The time-response data, and the dose-response data are plotted as means±standard error of the mean.
The cell line Daudi (from ATCC CCL-213) is grown under the recommended conditions and in culture media recommended by ATCC. The cell lines were cultured under sterile conditions at 37° C., in a humidified 5% CO2 atmosphere.
(§4) Induction of apoptosis and attendant decrease is observed in cell viability in the cancer cell lines. From the large increases in the activities of the caspase3/7 activity, it is clear that there is a time dependent effect and a dose dependent effect on the induction of apoptosis.

MV-4-11 = assay: Apoptosis and cell viability in AML cell line (Example 13); assay type: cell-based, human; conditions: 0, 10 and 100 uM, 5 to 7 days
Procedure: as §3
The cell line MV-4-11 (from ATCC […]) is grown under the recommended conditions and in culture media recommended by ATCC. The cell lines were cultured under sterile conditions at 37° C., in a humidified 5% CO2 atmosphere.
as §4

Row | Sequence | Apoptosis Index (1 = no effect) ([1]; SorC27 100 μM) | Decline in cell viability ([1]; SorC27 100 μM) | Apoptosis Index (1 = no effect) ([2]; Day 2, SorC27 100 uM) | Apoptosis Index (1 = no effect) ([2]; Day 3, SorC27 1 uM) | Apoptosis Index (1 = no effect) ([2]; Day 3, SorC27 10 uM) | Apoptosis Index (1 = no effect) ([2]; Day 3, SorC27 100 uM) | Decline in cell viability ([2]; SorC27) | larvae paralyzed (mealworm larvae; time 0 min) | larvae paralyzed (mealworm larvae; time 2 min) | larvae paralyzed (mealworm larvae; time 30 min) | paralysis in the mealworm larva model (mealworm larvae) | induction of apoptosis and cell viability (Daudi) | induction of apoptosis and cell viability (MV-4-11) | Apoptosis Index (1 = no effect) ([1]; SorC13 100 uM) | Decline in cell viability ([1]; SorC13 100 uM) | apoptosis (treatment:control ratio) compared with CAT cocktail ([2]; CAT = 10 uM Paclitaxel, 20 mM carboplatin)
1 | EGKLSSNDTEGGLCKEFLHPSKVDLPR [SorC27] | 1.0 | − | 1.8 | 1.2 | 1.9 | 1.9 | + | 0/4 | 0/4 | 0/4 | no evidence of paralysis | induces apoptosis and decreases cell viability | induces apoptosis and decreases cell viability |  |  | 
2 | KEFLHPSKVDLPR [SorC13, KEFLHPSKVDLPR] |  |  |  |  |  |  |  | 0/4 | 0/4 | 0/4 | no evidence of paralysis | induces apoptosis and decreases cell viability | induces apoptosis and decreases cell viability | 1.0 | − | produced earlier and more intense apoptosis cascade than the CAT cocktail
